Assay results taken from patent publication US20200316090A1, “TARGETED THERAPEUTICS” (MADRIGAL PHARMACEUTICALS, INC., priority 2012, published 2020).
Where two headings read alike, the source gives them in different places.

Assays:
[1] = Artificial membrane permeability assay (PAMPA)
Experimental: In order to test the ability SDC-TRAP molecules of the invention to enter cells, an artificial membrane permeability assay (“PAMPA”) was used. […] LC/MS was used in conjunction with PAMPA assays to determine the ability of the SDC-TRAP molecules of the invention to permeate cells.
Pre-coated PAMPA plates were warmed to room temperature for at least 30 minutes prior to adding assay components.
Stock solutions were prepared with the SDC-TRAP molecules to be tested. In order to make a working solution, either 50 μL of 100 μM Stock in DMSO+950 μL of PBS or 50 μL of 200 stock was added to 96 deep well plate, resulting in a 5 μM final concentration or a 10 μM final concentration, respectively. […] 200 μL of PBS was added into the corresponding wells of an acceptor PAMPA plates.
The acceptor plate was lowered onto the donor plate and allowed to incubate for five hours. After five hours, a 50 μL aliquot was removed from each well of each plate and added into a new 96 deep-well plate.
100 μL of methanol containing an internal standard was added to each aliquot and analyzed by LC/MS. The internal standard was 150 ng/ml SDC-TRAP-0002.
In order to calculate the permeability for each SDC-TRAP molecule and the control molecules, the following formula was used:
Permeability (in Unit of Cm/s):
[formula] • C0=initial compound concentration in donor well (mM) • CD (t)=compound concentration in donor well at time t. (mM) • CA (t)=compound concentration in acceptor well at time t. (mM) • VD=donor well volume=0.3 mL • VA=acceptor well volume=0.2 mL • A=filter area=0.3 cm^2 • t=incubation time=18000 s (5 h)
For the data presented in the table below, peak area was used in place of concentration in the formula above.

[2] = Tissue distribution of SDC-TRAP and degradation products in tumor-bearing mice (plasma, tumor, heart); format: in vivo, Female SCID Mouse (H1975)
Experimental: A 150 ng/mL solution of SDC-TRAP-0002 in methanol was prepared using an internal spiking solution (500 μg/mL SDC-TRAP-0002 in DMSO). Using the 10 mM stock solutions of the SDC-TRAP molecule and its Hsp90i binding moiety and effector moiety in DMSO, spiking solutions were prepared at 0.025, 0.05, 0.1, 0.5, 1, 5, 10, 50, 100, 250, and 500 μM in DMSO. 5 μL of each spiking solution was added to a 96-deep well plate.
Quality control standards were prepared from 5 μL of 0.1, 1, and 10 μM calibration standard spiking solution added in triplicate into 96-deep well plate and adding 50 μL of matrix (plasma or homogenized tumor).
To prepare test samples, test plasma was diluted as needed using blank plasma. Tumor samples were pulverized in liquid nitrogen, weighed, and homogenized in PBS at 5× volume to sample weight. 50 μL of unknown plasma or homogenized tumor sample was mixed with 5 μL of DMSO. The samples were extracted by precipitating calibration standards, QC standards, and unknown samples with 200 μL of internal standard solution. The samples were mixed by vortex at room temperature for approximately 1.5 minutes, then centrifuge at 2-8° C. 150 μL of supernatant was collected and 25 μL of water added. Samples were mixed and analyzed by LC-MS/MS.
Samples of plasma, heart and tumor were excised from a euthanized mouse, homogenized in PBS at 5 times tissue weight and diluted in 5 μL DMSO/50 μL sample. Prior to analysis, 55 μL samples and calibration standards were precipitated in 200 μL methanol in 96-well plates. Samples were mixed on a vortex mixer for 1.5 minutes at 1500 rpm at room temperature, then centrifuged at 4400 rpm for 10 minutes at 8° C. 150 μL of each supernatant was transferred to a well of a new 96-well plate, and 25 μL of water was added and mixed with the sample. […] For the analysis of samples from female SCID mice, a gradient of solvent A (water/0.1% formic acid) and B (acetonitrile/0.1% formic acid) was used as in Table A below.

[3] = Permeability (10^−6 cm/s), 5 h incubation, peak area used in place of concentration, first table
[4] = Permeability (cm/s), 5 h incubation, peak area used in place of concentration, first table
[5] = female, SCID, mouse, in vivo, read-out: Tumor/Plasma Ratio
[6] = tissue distribution of SDC-TRAP-0056, 6 h
[7] = tissue distribution of SDC-TRAP-0056, 12 h
[8] = tissue distribution of SDC-TRAP-0056, 24 h
[9] = female, SCID, mouse, in vivo, read-out: Plasma Conc.

For `CCc1c2c(nc3ccc(OC(=O)N4CCC[C@H]4C(=O)N4CCC(CCn5ccc6cc(-n7c(O)nnc7-c7cc(C(C)C)c(O)cc7O)ccc65)CC4)cc13)-c1cc3c(c(=O)n1C2)COC(=O)[C@]3(O)CC` [SDC-TRAP-0210], the Papp at 5 h [1] was 0.00899 ×10⁻⁶ cm/s, the “Mass Retention (%)” value ([1]; 5 h incubation, first table) was 34.8% and the “Mass Retention (%)” value ([1]; same protocol, second table) was 72.2%. For the same compound, the “Permeability (10^−6 cm/s)” value ([1]; same protocol, second table) was 0.00899 10^−6 cm/s.

With `CC(C)c1cc(-c2nnc(O)n2-c2ccc3c(ccn3CCN(C)C(=O)CCCC(=O)Nc3cccc4c3CN(C3CCC(=O)NC3=O)C4=O)c2)c(O)cc1O` (stereo not shown) [SDC-TRAP-0018, N1-(2-(5-(3-(2,4-dihydroxy-5-isopropylphenyl)-5-hydroxy-4H-1,2,4-triazol-4-yl)-1H-indol-1-yl)ethyl)-N5-(2-(2,6-dioxopiperidin-3-yl)-1-oxoisoindolin-4-yl)-N1-methylglutaramide] the “Mass Retention (%)” value ([1]; 5 h incubation, first table) was 14.7%, the Papp at 5 h [1, 3] was 0.0268 ×10⁻⁶ cm/s and the Papp at 5 h [1, 4] was 0.0268 ×10⁻⁶ cm/s.

For `CC(=O)O[C@@]12CO[C@@H]1C[C@H](O)[C@@]1(C)C(=O)[C@H](O)C3=C(C)[C@@H](OC(=O)[C@H](O)[C@@H](NC(=O)OC(C)(C)C)c4ccccc4)C[C@@](O)([C@@H](OC(=O)c4ccccc4)[C@H]21)C3(C)C` [Docetaxel, docetaxel, reference compound], the “Mass Retention (%)” value ([1]; 5 h incubation, first table) was 17.6%, the Papp at 5 h [1, 3] was 0.05 ×10⁻⁶ cm/s and the Papp at 5 h [1, 4] was 0.05 ×10⁻⁶ cm/s.

`CC(C)c1cc(-c2nnc(O)n2-c2ccc(CN3CCN(C(=O)Oc4ccc(COC(=O)Nc5cccc6c5CN(C5CCC(=O)NC5=O)C6=O)cc4)CC3)c(F)c2)c(O)cc1O` (stereo not shown) [SDC-TRAP-0171, 4-((((2-(2,6-dioxopiperidin-3-yl)-1-oxoisoindolin-4-yl)carbamoyl)oxy)methyl)phenyl-4-(4-(3-(2,4-dihydroxy-5-isopropylphenyl)-5-hydroxy-4H-1,2,4-triazol-4-yl)-2-fluorobenzyl)piperazine-1-carboxylate] gave a Kp at 6 h [2, 5] of 407.

In the case of `CCc1c2c(nc3ccc(O)cc13)-c1cc3c(c(=O)n1C2)COC(=O)C3(CC)OC(=O)CN1CCN(c2ccc(-n3c(O)nnc3-c3cc(C(C)C)c(O)cc3O)cc2)CC1` (stereo not shown) [SDC-TRAP-0056, 4,11-diethyl-9-hydroxy-3,14-dioxo-3,4,12,14-tetrahydro-1H-pyrano[3′,4′:6,7]indolizino[1,2-b]quinolin-4-yl 2-(4-(4-(3-(2,4-dihydroxy-5-isopropylphenyl)-5-hydroxy-4H-1,2,4-triazol-4-yl)phenyl)piperazin-1-yl)acetate], the Kp ([2]; female, SCID, mouse, in vivo, tissue distribution of SDC-TRAP-0056, 6 h, read-out: Tumor/Plasma Ratio) was 0.844, the Kp ([2]; female, SCID, mouse, in vivo, tissue distribution of SDC-TRAP-0056, 12 h, read-out: Tumor/Plasma Ratio) was 40.3 and the Kp ([2]; female, SCID, mouse, in vivo, tissue distribution of SDC-TRAP-0056, 24 h, read-out: Tumor/Plasma Ratio) was 40.3. The Kp ([2]; female, SCID, mouse, in vivo, tissue distribution of SDC-TRAP-0056, […], read-out: Tumor/Plasma Ratio) was 0.0193, the “Plasma Conc.” value [2, 6] was 5880 nM and the “Tumor Conc.” value [2, 6] was 4.97 nmol/g of tissue. The “Plasma Conc.” value [2, 7] was 54.2 nM, the “Tumor Conc.” value [2, 7] was 2.19 nmol/g of tissue and the “Plasma Conc.” value [2, 8] was 54.2 nM. For the same compound, the “Tumor Conc.” value [2, 8] was 2.19 nmol/g of tissue and the “Tumor Conc.” value ([2]; tissue distribution of SDC-TRAP-0056, 48 h) was 0.188 nmol/g of tissue.

`CCNC(=O)c1nnc(-c2cc(C(C)C)c(O)cc2O)n1-c1ccc(C(=O)N2CCN(c3cc(C)c(OC(=O)Nc4cccc5c4CN(C4CCC(=O)NC4=O)C5=O)c(C)c3)CC2)cc1` (stereo not shown) [SDC-TRAP-0178, 4-(4-(4-(3-(2,4-dihydroxy-5-isopropylphenyl)-5-(ethylcarbamoyl)-4H-1,2,4-triazol-4-yl)benzoyl)piperazin-1-yl)-2,6-dimethylphenyl (2-(2,6-dioxopiperidin-3-yl)-1-oxoisoindolin-4-yl)carbamate] showed a concentration at 1 h [2, 9] of 217000 nM, a concentration at 6 h [2, 9] of 4510 nM and a concentration at 24 h [2, 9] of 28 nM. For the same compound, the concentration at 48 h [2, 9] was 241 nM, the Kp at 1 h [2, 5] was 1.59 and the Kp at 6 h [2, 5] was 100. For the same compound, the Kp at 24 h [2, 5] was 100 and the Kp at […] [2, 5] was 0.0179.

With `COc1ccc(-c2cnoc2-c2cc(OC)c(OC)c(OC)c2)cc1OC(=O)N1CCN(Cc2ccc(-n3c(O)nnc3-c3cc(C(C)C)c(O)cc3O)cc2)CC1` [SDC-TRAP-0098, 2-Methoxy-5-(5-(3,4,5-trimethoxyphenyl)isoxazol-4-yl)phenyl-4-(4-(3-(2,4-dihydroxy-5-isopropylphenyl)-5-hydroxy-4H-1,2,4-triazol-4-yl)benzyl) piperazine-1-carboxylate] the “Tumor Conc.” value ([2]; tissue distribution of SDC-TRAP-0098, 1 h) was 0.250 nmol/g of tissue, the “Tumor Conc.” value ([2]; tissue distribution of SDC-TRAP-0098, 6 h) was 0.0122 nmol/g of tissue and the “Tumor Conc.” value ([2]; tissue distribution of SDC-TRAP-0098, 24 h) was “BQL”. The “Tumor Conc.” value ([2]; tissue distribution of SDC-TRAP-0098, 48 h) was “BQL”.
